Assay results as given in PMC9763333, “In vitro characterization of immune modulating drug-eluting immunobeads towards transarterial embolization in cancer” (Scientific Reports, 2022).
Where “and” joins values, the source holds several entries; their conditions need not be identical. Identical values can stand only once. Like-named read-outs stand apart in the source and are kept apart here.

How the values were obtained:
[1] = Washing of drug-loaded beads with deionized water and microscopic appearance; type: physicochemical
Protocol: (§1) Drug loading was performed in triplicate as previously reported[45] with slight modifications. […] Washing of beads is often a critical step in drug release studies as any drug left unbound to the beads affects the release profile and exaggerates the early burst release. […] However, washing was discontinued for TLR drugs as drug was continually observed even after multiple washes. […] The amount of drug loaded at the specified time points was calculated by subtracting the amount of drug remaining from the initial amount of drug in the loading solution and the cumulative amount of drug withdrawn for sampling. The maximum drug loaded in the beads was calculated once no further change in the concentration in the loading solution could be measured and before washing the beads. The relative percent drug loaded was defined as the maximum amount of drug loaded as a percent of the amount of SO3^- ions available in the beads on a molar basis using the following formula and the results are presented as the mean ± SD.

[2] = Drug loading into DC Bead LUMI; type: physicochemical; settings: for Relative percent drug loaded in DC Bead LUMI over time: listed as DSR; for Relative percent drug loaded (maximum, percent of SO3− available on a molar basis): mean (n = 3)
Protocol: as §1, with “DC Bead LUMI was analyzed for its elemental composition by MEDAC Inc. […] Drug” for “Drug”

[3] = pKa measurement by triple titration in methanol–water co-solvent with Yasuda-Shedlovsky extrapolation; type: physicochemical; settings: for pKa: methanol–water co-solvent, aqueous value by Yasuda-Shedlovsky extrapolation; for psKa1 / psKa2 / psKa3: methanol–water
Protocol: pKa measurements were performed by Pion Inc, UK Ltd using known methods as previously reported[47]–[50] or calculated by using software MoKa (Molecular Discovery, Borehamwood, Hertfordshire, UK, https://www.moldiscovery.com/software/moka/#references) or directly obtained from the literature. For GARD and DSR 6434, a triple titration was carried out under methanol–water co-solvent conditions from pH 2.0–12.0 at concentrations of 2.3–1.3 mM (the methanol mixing ratio varied from 49.0 to 28.9% w/w) and 1.5–0.9 mM (the methanol mixing ratio varied from 49.6 to 29.1% w/w), respectively.

[4] = Drug release from DC Bead LUMI in saline; type: physicochemical; settings: for release in saline from DC Bead LUMI after multiple washes in deionized water: single replicates, listed as DSR
Protocol: […] Briefly, drug-loaded DC Bead LUMI or LC Bead (62.5 µL) were placed in vessels with 50 mL of saline ([…], pH 7.4) and were agitated with upright rocking motion at a set maximum rocking speed of 10 (70 rpm) for 144 h at 37 °C using Ward's® Rotating Mixer. At scheduled time intervals identical to the loading time points, 1 mL of release media was withdrawn and used for drug quantification. To maintain 50 mL total elution volume, 1 mL of fresh saline pre heated to 37 °C was replaced at each timepoint. […] 2.4. The cumulative amount of drug released at each time point was calculated by multiplying the concentration of each sample aliquot by the total volume (50 mL) of release media and adding the sum of the amount of drug removed for sampling at prior time points. […] The 50 mL volume was chosen to ensure infinite sink conditions where the maximum possible concentration of eluted drug would be at least 10 times more dilute than the maximum solubility. This ensures the rate of release is not affected by solution concentration but is only a function of interactions of the bead, drug, and saline.

[5] = Drug solubilization by salt formation in acid; type: physicochemical; settings: T in °C in parentheses in the cell (20.1 or 21.1)
Protocol: The base form of each drug was suspended in deionized water and titrated with 0.1 N hydrochloric acid (Fisher Scientific, Hampton, NH) while stirring until all the base was solubilized and the volume adjusted to a final concentration of 2.5 mg/mL. The resulting solution was frozen, then lyophilized to yield solid drug-hydrochloride salt or used in its solubilized form for loading into DC Bead LUMI. […] Doxorubicin.HCl was readily solubilized and used without modification. […] A ZORBAX Eclipse Plus C8 reversed-phase column (Agilent) and UV detector at wavelength of 230 nm were used for GS-9620 analysis. The decomposition product of GS-9620 was analyzed with reversed phase high-performance liquid chromatography (Rp-HPLC) and LC/MS.

[6] = set-up: method as in PMID 28188808; settings: 0.08 mmol irinotecan; cited from earlier work

Structure (SMILES): CCCCNc1nc(N)c2[nH]c(=O)n(Cc3ccc(OCCN(C)C)nc3)c2n1 [DSR 6434]
- removal of drug from beads by repeated washing with deionized water ([1]; DC Bead LUMI): partially removed
- aggregation of drug during washing / elution ([1]; deionized water and saline, microscopy): absence of aggregated
- Relative percent drug loaded in DC Bead LUMI over time ([2]; 5 min, single replicates): 39.5677% and 47.7348% and 48.9285%
- Relative percent drug loaded in DC Bead LUMI over time ([2]; 15 min, single replicates): 41.6488% and 50.8205% and 51.9687%
- Relative percent drug loaded in DC Bead LUMI over time ([2]; 30 min, single replicates): 42.6689% and 54.1338% and 55.2332%
- Relative percent drug loaded in DC Bead LUMI over time ([2]; 45 min, single replicates): 48.2468% and 57.0357% and 58.0924%
- Relative percent drug loaded in DC Bead LUMI over time ([2]; 60 min, single replicates): 49.3314% and 55.3694% and 56.4506%
- Relative percent drug loaded in DC Bead LUMI over time ([2]; 120 min, single replicates): 50.4129% and 60.3547% and 61.3625%
- Relative percent drug loaded in DC Bead LUMI over time ([2]; 180 min, single replicates): 49.4039% and 56.8373% and 57.8969%
- Relative percent drug loaded in DC Bead LUMI over time ([2]; 240 min, single replicates): 49.4386% and 53.9704% and 55.0722%
- Relative percent drug loaded in DC Bead LUMI over time ([2]; 300 min, single replicates): 48.7119% and 56.2576% and 57.3257%
- Relative percent drug loaded in DC Bead LUMI over time ([2]; 360 min, single replicates): 47.0211% and 54.6141% and 55.7064%
- Relative percent drug loaded in DC Bead LUMI over time ([2]; 420 min, single replicates): 47.0555% and 55.952% and 57.0246%
- Relative percent drug loaded in DC Bead LUMI over time ([2]; 480 min, single replicates): 47.3643% and 55.2849% and 56.3673%
- Relative percent drug loaded in DC Bead LUMI over time ([2]; 1440 min, single replicates): 46.9195% and 55.3847% and 56.4657%
- Relative percent drug loaded in DC Bead LUMI over time ([2]; 2880 min, single replicates): 43.3022% and 55.4842% and 56.5637%
- Relative percent drug loaded in DC Bead LUMI over time ([2]; 4320 min, single replicates): 46.6711% and 54.7234% and 55.8141%
- Relative percent drug loaded in DC Bead LUMI over time ([2]; 8640 min, single replicates): 45.7549% and 53.8658% and 54.9692%
- loading behaviour ([2]; DC Bead LUMI): Fast loading
- Relative percent drug loaded (maximum, percent of SO3− available on a molar basis) ([2]; DC Bead LUMI): 57%
- Relative percent drug loaded (maximum, percent of SO3− available on a molar basis) ([2]; DC Bead LUMI, listed as DSR-6434): 57.38%
- equivalent of drug loaded to sulfonated bead ([2]; DC Bead LUMI, mean ± SD): 0.16 ± 0.02 mM drug/ml beads
- Maximum drug loaded ([2]; DC Bead LUMI, mean ± SD, n = 3, base form except Dox (salt form)): 65.95 ± 6.96 mg drug/ml beads
- Maximum drug loaded (Triplicate), % ([2]; DC Bead LUMI, single replicates): 50.4129% and 60.3547% and 61.3625%
- Drug: sulfonate ([2]; molar ratio at maximum loading, DC Bead LUMI): 0.574
- Theoretical maximum loading level based on SO3− contents ([2]; per mL DC Bead LUMI, assuming 1:1 drug to sulfonate): 114.94 mg
- pKa ([3]; read-out: pKa (first, measured)): 4.58
- pKa ([3]; read-out: pKa (second, measured)): 8.5
- pKa ([3]; read-out: pKa (third, measured)): 9.94
- psKa1 ([3]; dielectric constant 56.6): 4.18
- psKa2 ([3]; dielectric constant 56.6): 8.14
- psKa3 ([3]; dielectric constant 56.6): 10.7073
- psKa1 ([3]; dielectric constant 61.4): 4.3
- psKa2 ([3]; dielectric constant 61.4): 8.24
- psKa3 ([3]; dielectric constant 61.4): 10.5143
- psKa1 ([3]; dielectric constant 65.9): 4.39
- psKa2 ([3]; dielectric constant 65.9): 8.34
- psKa3 ([3]; dielectric constant 65.9): 10.3389
- release in saline from DC Bead LUMI after multiple washes in deionized water ([4]; 5 min): 11.6669 mg/mL of beads and 21.0618 mg/mL of beads and 12.3038 mg/mL of beads
- release in saline from DC Bead LUMI after multiple washes in deionized water ([4]; 15 min): 12.2718 mg/mL of beads and 15.5382 mg/mL of beads and 12.6826 mg/mL of beads
- release in saline from DC Bead LUMI after multiple washes in deionized water ([4]; 30 min): 12.9372 mg/mL of beads and 16.3714 mg/mL of beads and 14.5502 mg/mL of beads
- release in saline from DC Bead LUMI after multiple washes in deionized water ([4]; 45 min): 13.4518 mg/mL of beads and 17.0028 mg/mL of beads and 14.9641 mg/mL of beads
- release in saline from DC Bead LUMI after multiple washes in deionized water ([4]; 60 min): 13.786 mg/mL of beads and 17.7202 mg/mL of beads and 15.5663 mg/mL of beads
- release in saline from DC Bead LUMI after multiple washes in deionized water ([4]; 120 min): 14.3607 mg/mL of beads and 18.3129 mg/mL of beads and 16.228 mg/mL of beads
- release in saline from DC Bead LUMI after multiple washes in deionized water ([4]; 180 min): 16.0563 mg/mL of beads and 19.309 mg/mL of beads and 16.8971 mg/mL of beads
- release in saline from DC Bead LUMI after multiple washes in deionized water ([4]; 240 min): 15.1532 mg/mL of beads and 19.1241 mg/mL of beads and 17.0694 mg/mL of beads
- release in saline from DC Bead LUMI after multiple washes in deionized water ([4]; 300 min): 15.5267 mg/mL of beads and 19.8574 mg/mL of beads and 17.3452 mg/mL of beads
- release in saline from DC Bead LUMI after multiple washes in deionized water ([4]; 360 min): 16.1146 mg/mL of beads and 19.776 mg/mL of beads and 18.2574 mg/mL of beads
- release in saline from DC Bead LUMI after multiple washes in deionized water ([4]; 420 min): 15.8596 mg/mL of beads and 19.8188 mg/mL of beads and 17.9345 mg/mL of beads
- release in saline from DC Bead LUMI after multiple washes in deionized water ([4]; 480 min): 16.4167 mg/mL of beads and 20.0149 mg/mL of beads and 17.9173 mg/mL of beads
- release in saline from DC Bead LUMI after multiple washes in deionized water ([4]; 1440 min): 16.847 mg/mL of beads and 20.6066 mg/mL of beads and 18.2918 mg/mL of beads
- release in saline from DC Bead LUMI after multiple washes in deionized water ([4]; 2880 min): 17.1212 mg/mL of beads and 20.6727 mg/mL of beads and 18.4291 mg/mL of beads
- release in saline from DC Bead LUMI after multiple washes in deionized water ([4]; 4320 min): 17.0504 mg/mL of beads and 20.4416 mg/mL of beads and 18.5897 mg/mL of beads
- release in saline from DC Bead LUMI after multiple washes in deionized water ([4]; 8640 min): 16.3092 mg/mL of beads and 19.4828 mg/mL of beads and 17.2615 mg/mL of beads
- release behaviour in saline ([4]; DC Bead LUMI): rapid release
- pH at which each drug dissolved for loading [5]: 1.65 (20.1)

Structure (SMILES): CCc1c2c(nc3ccc(OC(=O)N4CCC(N5CCCCC5)CC4)cc13)-c1cc3c(c(=O)n1C2)COC(=O)[C@]3(O)CC [irinotecan]
- time to load drug to DC Bead LUMI [6]: ≤ 10 min
